Values quoted from earlier work in patent US11382927B2, “Liquid medicinal preparation” (FUJIFILM Corporation, priority 2016, dated 2022).

Test system: tumor
Conditions: oral administration to mice

SMILES: Nc1ccn([C@@H]2S[C@H](CO)[C@@H](O)[C@@H]2F)c(=O)n1 [Compound A, 1-(2-deoxy-2-fluoro-4-thio-β-D-arabinofuranosyl)cytosine]
- Antitumor activity: strong antitumor activity
